Measurements published in patent US6638979B1, “Imidamide derivatives” (Bayer Aktiengesellschaft, priority 1998, dated 2003).

Legend:
Meloidogyne incognita = experiment: Critical concentration test (soil treatment, lettuce root galls); format: in vivo; conditions: active compound concentration of 20 ppm in soil, greenhouse 25° C., evaluated after three weeks
Procedure: Critical Concentration Test [table] To produce a suitable preparation of active compound, 1 part by weight of active compound is mixed with the stated amount of solvent, the stated amount of emulsifier is added and the concentrate is diluted to the desired concentration. The preparation of active compound is intimately mixed with the soil which is contaminated with the test nematodes. The concentration of the active compound in the preparation is here virtually unimportant, only the amount of active compound per volume unit of soil, which is stated in ppm (=mg/l), is decisive. The treated soil is filled into pots, lettuce is sown in and the pots are kept at a greenhouse temperature of 25° C. After three weeks, the roots of the lettuces are examined for infestation by nematodes (root galls), and the efficacy of the active compound in % is determined. The efficacy is 100% when infestation is avoided completely and 0% when the infestation level is just as high as in the control plants in untreated, but equally infested, soil.

Q: Which results are given for `CC(=NC#N)NC(C)c1ccc(Cl)cc1` (centres unmarked) [Preparation Example 1, [R]-N-cyano-N′-(4-chlorophenyl-eth-1-yl)-ethaneimidamide]?
A: kill (efficacy of the active compound in %) (Meloidogyne incognita): 100%; melting point: 125 °C
